In ChEMBL document CHEMBL1201862, “PubChem BioAssay data set” (2004):
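In this assay, cells in 96-well plates receive the compound at five concentrations for 48 hours. Endpoints are linearly interpolated between the surrounding concentrations. Abbreviation: GI50, concentration required for 50% inhibition of growth.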 The source made the active and inactive calls. No stated cut-off is given here; in the data, active = GI50 up to about 1.1 µM and inactive = higher.

Experiments:
Test in all cases: NCI-60 cell line screen, 48 h
UACC-62 = test system: UACC-62
NCI-H226 = test system: NCI-H226
RXF 393 = test system: RXF 393
RPMI-8226 = test system: RPMI-8226
SN12C = test system: SN12C
SW-620 = test system: SW-620
HL-60 = test system: HL-60
TK-10 = test system: TK-10
HCT-116 = test system: HCT-116
IGROV-1 = test system: IGROV-1
786-0 = test system: 786-0
SK-OV-3 = test system: SK-OV-3
UACC-257 = test system: UACC-257
COLO 205 = test system: COLO 205
Malme-3M = test system: Malme-3M
NCI-H460 = test system: NCI-H460
CCRF-CEM = test system: CCRF-CEM
OVCAR-8 = test system: OVCAR-8
SR = test system: SR

Measured: GI50

CCOc1ccc(NC(=O)/C(=C/c2ccccc2)C(C)=O)cc1
inactive: UACC-62 5.04 µM | NCI-H226 13.2 µM | RXF 393 5.32 µM | RPMI-8226 2.94 µM | SN12C 13.2 µM | SW-620 13.2 µM | HL-60 2.32 µM | TK-10 17.3 µM | HCT-116 4.94 µM | IGROV-1 10.2 µM | 786-0 12.2 µM | SK-OV-3 24.6 µM | UACC-257 12.2 µM | COLO 205 17.2 µM | Malme-3M 16.5 µM | NCI-H460 17.4 µM | CCRF-CEM 2.87 µM | OVCAR-8 12.1 µM

CCc1n[nH]c(=O)n1/N=C/c1c(O)ccc2ccccc12
inactive: UACC-62 > 100 µM | RXF 393 > 100 µM | RPMI-8226 > 100 µM | SN12C > 100 µM | SW-620 > 100 µM | TK-10 > 100 µM | HCT-116 > 100 µM | IGROV-1 > 100 µM | SR > 100 µM | 786-0 > 100 µM | SK-OV-3 > 100 µM | UACC-257 > 100 µM | COLO 205 > 100 µM | CCRF-CEM > 100 µM | OVCAR-8 > 100 µM

Cc1nc2c(Br)cc(Br)cc2c(=O)n1-c1ccccc1N
inactive: UACC-62 30.1 µM | NCI-H226 30.3 µM | SN12C 29.9 µM | SW-620 44.6 µM | HL-60 19.9 µM | HCT-116 23.4 µM | IGROV-1 38.3 µM | SR 37 µM | 786-0 43.8 µM | SK-OV-3 33 µM | UACC-257 31 µM | COLO 205 20.7 µM | Malme-3M 28.4 µM | NCI-H460 31.8 µM | CCRF-CEM 30.1 µM | OVCAR-8 62.5 µM

COc1ccc2nc(NC(=O)C(=O)CC(=O)c3ccc([N+](=O)[O-])cc3)sc2c1
inactive: UACC-62 > 100 µM | NCI-H226 > 100 µM | RPMI-8226 > 100 µM | SN12C > 100 µM | SW-620 > 100 µM | HCT-116 > 100 µM | IGROV-1 > 100 µM | 786-0 > 100 µM | SK-OV-3 > 100 µM | UACC-257 > 100 µM | COLO 205 > 100 µM | Malme-3M > 100 µM | NCI-H460 > 100 µM | CCRF-CEM > 100 µM | OVCAR-8 > 100 µM

CC1CC(N)=Nc2ccccc2N1Cc1ccccc1 (stereo not given)
inactive: UACC-62 14.2 µM | NCI-H226 15.7 µM | RXF 393 12 µM | RPMI-8226 5 µM | SN12C 16.6 µM | SW-620 12.6 µM | HL-60 3.96 µM | TK-10 15 µM | HCT-116 29.3 µM | IGROV-1 7.6 µM | 786-0 29.4 µM | SK-OV-3 13.2 µM | UACC-257 12.9 µM | COLO 205 14.9 µM | Malme-3M 2.22 µM | NCI-H460 13.9 µM | CCRF-CEM 12.4 µM | OVCAR-8 14.6 µM

CC(C)C(=O)/C=C/c1ccc(Cl)c(Cl)c1
inactive: UACC-62 17.3 µM | RXF 393 16.7 µM | RPMI-8226 13.8 µM | SN12C 15 µM | SW-620 15.6 µM | HL-60 15 µM | TK-10 14.2 µM | HCT-116 3.69 µM | IGROV-1 20 µM | SR 14.5 µM | 786-0 14.5 µM | SK-OV-3 28.6 µM | UACC-257 21.5 µM | COLO 205 24.9 µM | NCI-H460 22.2 µM | CCRF-CEM 4.53 µM | OVCAR-8 18.9 µM

COc1cccc2c1C1=CC(=O)CCC1C(C)(C)O2 (stereo not given)
inactive: UACC-62 > 100 µM | NCI-H226 > 100 µM | RXF 393 6.03 µM | RPMI-8226 20.6 µM | SN12C > 100 µM | SW-620 13.4 µM | HL-60 60 µM | TK-10 > 100 µM | HCT-116 47.6 µM | IGROV-1 > 100 µM | 786-0 > 100 µM | SK-OV-3 > 100 µM | UACC-257 > 100 µM | COLO 205 67.6 µM | Malme-3M > 100 µM | NCI-H460 35.9 µM | CCRF-CEM 56.4 µM | OVCAR-8 > 100 µM

CC(SC(=S)N1CCOCC1)c1cc2oc(=O)n(C)c2cc1Cl (stereo not given)
inactive: UACC-62 > 100 µM | RXF 393 > 100 µM | RPMI-8226 58.2 µM | SN12C > 100 µM | SW-620 > 10 µM | HL-60 39.4 µM | TK-10 > 100 µM | HCT-116 > 100 µM | IGROV-1 > 10 µM | SR 30.4 µM | 786-0 > 100 µM | SK-OV-3 > 100 µM | UACC-257 74.5 µM | COLO 205 > 100 µM | Malme-3M > 100 µM | NCI-H460 > 100 µM | CCRF-CEM 19.8 µM | OVCAR-8 > 100 µM
